Laboratory results reported in US20220380370A1 (Goldfinch Bio, Inc., priority 2019, published 2022).

target: T1, CB1 receptor (Homo sapiens, UniProt P21554); experiment: CB1 cAMP antagonist assay (LANCE Ultra cAMP kit); assay type: cell-based; conditions: CHO cells stably expressing the CB1 receptor; forskolin and agonist CP55940 at EC90
T1 construct: Perkin Elmer (CB1-CHO cells); host or cells: Flp-In CHO cells or CB1-CHO cells, stably expressing
Source text: LANCE Ultra cAMP kit (Perkin Elmer) was used to quantitate the amount of 3′,5′-cyclic adenosine monophosphate (cAMP) produced in Flp-In CHO cells (Invitrogen) stably expressing the CB1 receptor, CB1-CHO cells (Perkin Elmer) stably expressing the CB1 receptor, or CB2-CHO cells (Perkin Elmer) stably expressing the CB2 receptor.
Forskolin was initially titrated to determine the response of the cells. The EC90 of forskolin was used for compound testing. CP55940 was titrated and used with EC90 of forskolin to determine the level of agonist stimulation. EC90 of the agonist was used for subsequent compound testing. For the CB1 assay, Forskolin (Sigma), CP55940 (Cayman Chemicals), and AM251 (MCE) were diluted in 100% DMSO, starting at 100 mM, 1 mM, and 1 mM respectively, in 3-fold serial dilutions. For the CB2 assay, Forskolin (Sigma), CP55940 (Cayman Chemicals), and AM630 (MCE) were diluted in 100% DMSO, starting at 100 mM, 1 mM, and 30 mM respectively, in 3-fold serial dilutions. Test compounds were diluted in 100% DMSO starting from 10 mM, 3-fold dilutions. The cAMP assay buffer contains 1× Hank's Buffered Saline Solution with Ca^2+ and Mg^2+ (Invitrogen), 5.3 mM HEPES (Invitrogen), 0.05% BSA, 0.5 mM IBMX (Sigma). For all assays, cells were harvested, counted, and diluted in cAMP assay buffer to 1×10^5 cells/mL. Only cells with viability >85% were used for the assay. Cells were seeded at 1000 cells/well in 384-well plates and 10 nL/well AM251 (for CB1), AM630 (for CB2) or test compound was added and incubated at 37° C. for 10 min. Then forskolin and agonist were added to reach their EC90 and incubated at 25° C. for 30 min. To detect the amount of cAMP produced, 5 μL of a 100× diluted stock of Eu-cAMP tracer and 5 μL of 200× diluted stock of Ulight-anti-cAMP were added to each well, and the plate incubated at 25° C. for 15 min. The FRET signal was read using an EnVision microplate reader (λex=320 nm, λem=615 nm and 665 nm). The results are expressed as % Inhibition, where % inhibition=100−100×(U−C2)/(C1−C2), where U is the FRET ratio (λem (665 nm)/λem (615 nm)) of sample, C1 is the average of the high controls (signal with no antagonist added), and C2 is the average of low controls (signal with the highest concentration of AM251 or AM630 antagonist). The IC50 is determined by fitting the percentage of inhibition as a function of compound concentrations with the Hill equation, using a 4-parameter fit in either XLfit or GraphPad Prism.

T1 sequence (P21554 whole entry): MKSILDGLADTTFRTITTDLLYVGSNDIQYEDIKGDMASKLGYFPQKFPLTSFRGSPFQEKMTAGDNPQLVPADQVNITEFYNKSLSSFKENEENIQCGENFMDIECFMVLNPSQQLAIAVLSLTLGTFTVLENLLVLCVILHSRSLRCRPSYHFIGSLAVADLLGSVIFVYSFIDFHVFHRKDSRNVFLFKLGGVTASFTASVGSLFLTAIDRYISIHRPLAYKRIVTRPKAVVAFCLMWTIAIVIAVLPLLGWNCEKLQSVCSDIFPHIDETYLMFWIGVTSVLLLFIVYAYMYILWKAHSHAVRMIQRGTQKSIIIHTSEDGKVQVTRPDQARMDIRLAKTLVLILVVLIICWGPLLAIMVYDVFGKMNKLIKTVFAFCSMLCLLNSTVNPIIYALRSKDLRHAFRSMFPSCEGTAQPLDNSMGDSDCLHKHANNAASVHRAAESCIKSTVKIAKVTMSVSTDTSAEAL

Row | Structure (SMILES) | IC50
1 | NC(=O)Cn1c(=O)c2c(nc(-c3ccccc3Cl)n2-c2ccc(Cl)cc2)n(CC2COCCO2)c1=O (racemic) [Compound 124, 2-[8-(2-chlorophenyl)-7-(4-chlorophenyl)-3-(1,4-dioxan-2-ylmethyl)-2,6-dioxopurin-1-yl]acetamide] | < 100 nM
2 | NC(=O)Cn1c(=O)c2c(nc(-c3ccccc3Cl)n2-c2ccc(Cl)cc2)n(CC2COCCO2)c1=O (stereo in doubt) [Compound 127, 2-[8-(2-chlorophenyl)-7-(4-chlorophenyl)-3-[(2R)-1,4-dioxan-2-ylmethyl]-2,6-dioxopurin-1-yl]acetamide] | 100 to 1000 nM
3 | NC(=O)Cn1c(=O)c2c(nc(-c3ccccc3Cl)n2-c2ccc(Cl)cc2)n(CC2COCCO2)c1=O (stereo in doubt) [Compound 128, 2-[8-(2-chlorophenyl)-7-(4-chlorophenyl)-3-[(2S)-1,4-dioxan-2-ylmethyl]-2,6-dioxopurin-1-yl]acetamide] | 100 to 1000 nM
4 | CC(c1ccc(C(=O)NCCO)cc1)n1c(=O)n(C)c(=O)c2c1nc(-c1ccccc1Cl)n2-c1ccc(Cl)cc1 (stereo in doubt) [Compound 134, 4-[(1R)-1-[8-(2-chlorophenyl)-7-(4-chlorophenyl)-1-methyl-2,6-dioxopurin-3-yl]ethyl]-N-(2-hydroxyethyl)benzamide] | 100 to 1000 nM
5 | CC(C(N)=O)n1c(=O)c2c(nc(-c3ccccc3Cl)n2-c2ccc(Cl)cc2)n(C2CCOCC2)c1=O (stereo in doubt) [Compound 138, (2R)-2-[8-(2-chlorophenyl)-7-(4-chlorophenyl)-3-(oxan-4-yl)-2,6-dioxopurin-1-yl]propanamide] | 100 to 1000 nM
6 | CC(C(N)=O)n1c(=O)c2c(nc(-c3ccccc3Cl)n2-c2ccc(Cl)cc2)n(CC2CCOCC2)c1=O (stereo in doubt) [Compound 140, (2S)-2-[8-(2-chlorophenyl)-7-(4-chlorophenyl)-3-(oxan-4-ylmethyl)-2,6-dioxopurin-1-yl]propanamide] | < 100 nM
7 | CC(C(N)=O)n1c(=O)c2c(nc(-c3ccccc3Cl)n2-c2ccc(Cl)cc2)n(CC2CCS(=O)(=O)CC2)c1=O (stereo in doubt) [Compound 142, (2S)-2-[8-(2-chlorophenyl)-7-(4-chlorophenyl)-3-[(1,1-dioxo-1 lambda6-thian-4-yl)methyl]-2,6-dioxopurin-1-yl]propanamide] | < 100 nM
8 | CC(C(N)=O)n1c(=O)c2c(nc(-c3ccccc3Cl)n2-c2ccc(Cl)cc2)n(CC2CCS(=O)(=O)CC2)c1=O (stereo in doubt) [Compound 144, (2R)-2-[8-(2-chlorophenyl)-7-(4-chlorophenyl)-3-[(1,1-dioxo-1 lambda6-thian-4-yl)methyl]-2,6-dioxopurin-1-yl]propanamide] | < 100 nM
9 | NC(=O)Cn1c(=O)c2c(nc(-c3ccccc3Cl)n2-c2ccc(Cl)cc2)n(Cc2ccc(CC(O)CO)cc2)c1=O (stereo in doubt) [Compound 146, 2-[8-(2-chlorophenyl)-7-(4-chlorophenyl)-3-([4-[(2S)-2,3-dihydroxypropyl]phenyl]methyl)-2,6-dioxopurin-1-yl]acetamide] | 100 to 1000 nM
10 | NC(=O)Cn1c(=O)c2c(nc(-c3ccccc3Cl)n2-c2ccc(Cl)cc2)n(Cc2ccc(CC(O)CO)cc2)c1=O (stereo in doubt) [Compound 148, 2-[8-(2-chlorophenyl)-7-(4-chlorophenyl)-3-([4-[(2R)-2,3-dihydroxypropyl]phenyl]methyl)-2,6-dioxopurin-1-yl]acetamide] | 100 to 1000 nM
11 | CC(C)(C)C(=O)OCn1c(=O)c2c(nc(-c3ccccc3Cl)n2-c2ccc(Cl)cc2)n(C2CCCCC2)c1=O [Compound 102] | < 100 nM
12 | CC(=O)N1CCC(Cn2c(=O)n(C)c(=O)c3c2nc(-c2ccccc2Cl)n3-c2ccc(Cl)cc2)CC1 [Compound 107, 3-[(1-acetylpiperidin-4-yl)methyl]-8-(2-chlorophenyl)-7-(4-chlorophenyl)-1-methylpurine-2,6-dione] | < 100 nM
13 | COC(=O)c1ccc(Cn2c(=O)n(C)c(=O)c3c2nc(-c2ccccc2Cl)n3-c2ccc(Cl)cc2)cc1 [Compound 108] | < 100 nM
14 | Cn1c(=O)c2c(nc(-c3ccccc3Cl)n2-c2ccc(Cl)cc2)n(Cc2ccc(Cl)cc2)c1=O [Compound 109, 8-(2-chlorophenyl)-7-(4-chlorophenyl)-3-[(4-chlorophenyl)methyl]-1-methyl-2,3,6,7-tetrahydro-1H-purine-2,6-dione] | < 100 nM
15 | Cn1c(=O)c2c(nc(-c3ccccc3Cl)n2-c2ccc(Cl)cc2)n(CC2CCCCC2)c1=O [Compound 110, 8-(2-chlorophenyl)-7-(4-chlorophenyl)-3-(cyclohexylmethyl)-1-methyl-2,3,6,7-tetrahydro-1H-purine-2,6-dione] | < 100 nM
16 | Cn1c(=O)c2c(nc(-c3ccccc3Cl)n2-c2ccc(Cl)cc2)n(Cc2ccc(C(=O)O)cc2)c1=O [Compound 111, 4-[[8-(2-chlorophenyl)-7-(4-chlorophenyl)-1-methyl-2,6-dioxo-2,3,6,7-tetrahydro-1H-purin-3-yl]methyl]benzoic acid] | 1000 to 5000 nM
17 | Cn1c(=O)c2c(nc(-c3ccccc3Cl)n2-c2ccc(Cl)cc2)n(CC2CCN(C[C@H](O)CO)CC2)c1=O [Compound 113, 8-(2-chlorophenyl)-7-(4-chlorophenyl)-3-([1-[(2S)-2,3-dihydroxypropyl]piperidin-4-yl]methyl)-1-methyl-2,3,6,7-tetrahydro-1H-purine-2,6-dione] | ≥ 5000 nM
18 | Cn1c(=O)c2c(nc(-c3ccccc3Cl)n2-c2ccc(Cl)cc2)n(CC2CCN(CC(N)=O)CC2)c1=O [Compound 115, 2-(4-[[8-(2-chlorophenyl)-7-(4-chlorophenyl)-1-methyl-2,6-dioxo-2,3,6,7-tetrahydro-1H-purin-3-yl]methyl]piperidin-1-yl)acetamide] | 100 to 1000 nM
19 | CN1CCC(Cn2c(=O)n(C)c(=O)c3c2nc(-c2ccccc2Cl)n3-c2ccc(Cl)cc2)CC1 [Compound 116, 8-(2-chlorophenyl)-7-(4-chlorophenyl)-1-methyl-3-[(1-methylpiperidin-4-yl)methyl]-2,3,6,7-tetrahydro-1H-purine-2,6-dione] | ≥ 5000 nM
20 | NC(=O)Cn1c(=O)c2c(nc(-c3ccccc3Cl)n2-c2ccc(Cl)cc2)n(CC2CCN(CCO)CC2)c1=O [Compound 117] | ≥ 5000 nM
21 | CN1CCN(Cc2ccc(Cn3c(=O)n(CC(N)=O)c(=O)c4c3nc(-c3ccccc3Cl)n4-c3ccc(Cl)cc3)cc2)CC1 [Compound 118] | 1000 to 5000 nM
22 | O=c1[nH]c(=O)n(Cc2ccc(Cl)cc2)c2nc(-c3ccccc3Cl)n(-c3ccc(Cl)cc3)c12 [Compound 119, 8-(2-chlorophenyl)-7-(4-chlorophenyl)-3-[(4-chlorophenyl)methyl]-2,3,6,7-tetrahydro-1H-purine-2,6-dione] | < 100 nM
23 | CN(CCO)Cc1ccc(Cn2c(=O)n(C)c(=O)c3c2nc(-c2ccccc2Cl)n3-c2ccc(Cl)cc2)cc1 [Compound 120] | 100 to 1000 nM
24 | NC(=O)Cn1c(=O)c2c(nc(-c3ccccc3Cl)n2-c2ccc(Cl)cc2)n(Cc2ccc(CN3CCOCC3)cc2)c1=O [Compound 121, 2-[8-(2-chlorophenyl)-7-(4-chlorophenyl)-3-([4-[(morpholin-4-yl)methyl]phenyl]methyl)-2,6-dioxo-2,3,6,7-tetrahydro-1H-purin-1-yl]acetamide] | < 100 nM
25 | COCCOCc1ccc(Cn2c(=O)n(C)c(=O)c3c2nc(-c2ccccc2Cl)n3-c2ccc(Cl)cc2)cc1 [Compound 122, 8-(2-chlorophenyl)-7-(4-chlorophenyl)-3-([4-[(2-methoxyethoxy)methyl]phenyl]methyl)-1-methylpurine-2,6-dione] | < 100 nM
26 | CC(=O)N1CCC(Cn2c(=O)n(CC(N)=O)c(=O)c3c2nc(-c2ccccc2Cl)n3-c2ccc(Cl)cc2)CC1 [Compound 123, 2-[3-[(1-acetylpiperidin-4-yl)methyl]-8-(2-chlorophenyl)-7-(4-chlorophenyl)-2,6-dioxopurin-1-yl]acetamide] | 100 to 1000 nM
27 | CN(CCO)C(=O)c1ccc(Cn2c(=O)n(C)c(=O)c3c2nc(-c2ccccc2Cl)n3-c2ccc(Cl)cc2)cc1 [Compound 126] | 100 to 1000 nM
28 | CC(=O)N1CCC(Cn2c(=O)n(C(C)C(N)=O)c(=O)c3c2nc(-c2ccccc2Cl)n3-c2ccc(Cl)cc2)CC1 (stereo not shown) [Compound 129, 2-[3-[(1-acetylpiperidin-4-yl)methyl]-8-(2-chlorophenyl)-7-(4-chlorophenyl)-2,6-dioxopurin-1-yl]propanamide] | 100 to 1000 nM
